Measurements: PubChem BioAssay (NCI)
Several values for one entry are separate records, joined by “and”; a condition that tells them apart may be missing. Equal values may be shown once.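 96-well plates; 48 h exposure; 5 concentrations. Endpoints by linear interpolation between flanking doses. Not reached: highest tested concentration assigned. GI50 = concentration required for 50% inhibition of growth. TGI: total growth inhibition.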

Assays:
Assay in all cases: inhibition of tumour cell growth, NCI panel, 48 h
MOLT-4 leukemia = test system: MOLT-4 leukemia
A498 renal = test system: A498 renal
BT-549 breast = test system: BT-549 breast
T-47D breast = test system: T-47D breast
NCI-H226 lung = test system: NCI-H226 lung
SK-MEL-2 melanoma = test system: SK-MEL-2 melanoma
EKVX NSCLC = test system: EKVX NSCLC
CCRF-CEM leukemia = test system: CCRF-CEM leukemia
K-562 leukemia = test system: K-562 leukemia
DU-145 prostate = test system: DU-145 prostate
SF-295 CNS = test system: SF-295 CNS
HL-60(TB) leukemia = test system: HL-60(TB) leukemia
SF-268 CNS = test system: SF-268 CNS
SNB-75 CNS = test system: SNB-75 CNS
RXF 393 renal = test system: RXF 393 renal
PC-3 prostate = test system: PC-3 prostate
HOP-92 NSCLC = test system: HOP-92 NSCLC
SW-620 colon = test system: SW-620 colon
MDA-N = test system: MDA-N
SK-MEL-28 melanoma = test system: SK-MEL-28 melanoma
SR leukemia = test system: SR leukemia
HS 578T breast = test system: HS 578T breast
IGROV1 ovarian = test system: IGROV1 ovarian
NCI-H522 lung = test system: NCI-H522 lung
CAKI-1 renal = test system: CAKI-1 renal
HCT-15 colon = test system: HCT-15 colon
SN12C renal = test system: SN12C renal
HCC-2998 colon = test system: HCC-2998 colon
MDA-MB-231 breast = test system: MDA-MB-231 breast
SNB-19 CNS = test system: SNB-19 CNS
RPMI-8226 leukemia = test system: RPMI-8226 leukemia
U251 CNS = test system: U251 CNS
HT29 colon = test system: HT29 colon
OVCAR-3 ovarian = test system: OVCAR-3 ovarian
786-0 renal = test system: 786-0 renal
ACHN renal = test system: ACHN renal
LOX IMVI melanoma = test system: LOX IMVI melanoma
SF-539 CNS = test system: SF-539 CNS
NCI-H23 lung = test system: NCI-H23 lung
HOP-62 NSCLC = test system: HOP-62 NSCLC
OVCAR-8 ovarian = test system: OVCAR-8 ovarian
OVCAR-4 ovarian = test system: OVCAR-4 ovarian
TK-10 renal = test system: TK-10 renal
A549 NSCLC = test system: A549 NSCLC
M14 melanoma = test system: M14 melanoma
UACC-257 melanoma = test system: UACC-257 melanoma
HCT-116 colon = test system: HCT-116 colon
MCF7 breast = test system: MCF7 breast
SK-OV-3 ovarian = test system: SK-OV-3 ovarian
NCI-H460 lung = test system: NCI-H460 lung
MALME-3M melanoma = test system: MALME-3M melanoma
COLO 205 colon = test system: COLO 205 colon
UO-31 renal = test system: UO-31 renal
OVCAR-5 ovarian = test system: OVCAR-5 ovarian
NCI/ADR-RES ovarian = test system: NCI/ADR-RES ovarian
SK-MEL-5 melanoma = test system: SK-MEL-5 melanoma
MDA-MB-435 = test system: MDA-MB-435
KM12 colon = test system: KM12 colon

Question: What does the source list for `O=c1[nH]cc(F)c(=O)[nH]1`?
Answer: GI50 (MOLT-4 leukemia): 6.25 µM and 0.871 µM; GI50 (A498 renal): 4.81 µM and 5.2 µM; GI50 (BT-549 breast): 7.32 µM and 6.94 µM and 27.1 µM; TGI (BT-549 breast): > 100 µM and 2090 µM and > 1390 µM; GI50 (T-47D breast): 7.97 µM and 9.73 µM and 17.6 µM; GI50 (NCI-H226 lung): 23.9 µM and 59.6 µM and 186 µM; TGI (NCI-H226 lung): > 100 µM and 2170 µM and > 2500 µM; TGI (SK-MEL-2 melanoma): > 100 µM and 2190 µM and > 2500 µM; TGI (EKVX NSCLC): > 100 µM and 2250 µM and > 2500 µM; GI50 (CCRF-CEM leukemia): 9.86 µM and 8.53 µM; TGI (CCRF-CEM leukemia): 1990 µM and > 1040 µM; GI50 (K-562 leukemia): 4.75 µM and 12 µM; TGI (K-562 leukemia): 2190 µM and > 1830 µM; TGI (DU-145 prostate): > 100 µM and 2160 µM and > 2500 µM; GI50 (SF-295 CNS): 6.45 µM and 0.721 µM; TGI (HL-60(TB) leukemia): > 100 µM and 1560 µM and 298 µM; TGI (SF-268 CNS): > 100 µM and 2280 µM and > 2500 µM; TGI (SNB-75 CNS): > 100 µM and 1990 µM and 2430 µM; GI50 (RXF 393 renal): 25.9 µM and 2.91 µM and 23.8 µM; TGI (PC-3 prostate): > 100 µM and 2250 µM and > 2500 µM; TGI (HOP-92 NSCLC): > 100 µM and 2040 µM and > 2500 µM; TGI (SW-620 colon): > 100 µM and 2440 µM and > 2360 µM; TGI (MDA-N): 2390 µM and > 2500 µM; GI50 (SK-MEL-28 melanoma): 5.99 µM and 1.5 µM; GI50 (SR leukemia): 1.26 µM and 0.514 µM; TGI (SR leukemia): > 100 µM and > 33.4 µM and 609 µM; GI50 (HS 578T breast): > 100 µM and 14.3 µM; TGI (HS 578T breast): > 100 µM and 2250 µM and > 1170 µM; GI50 (IGROV1 ovarian): 6.13 µM and 2.37 µM and 20.6 µM; GI50 (NCI-H522 lung): 11 µM and 11.5 µM and 82.9 µM

Question: What does the source list for `COc1cc(C(=O)OC2CC(C)=CC[C@@]3(C)CC[C@](O)(C(C)C)C23)ccc1O` (some centres not stated)?
Answer: TGI (CAKI-1 renal): 30.4 µM; TGI (HCT-15 colon): 35.3 µM; TGI (MOLT-4 leukemia): 40.6 µM; TGI (SN12C renal): 37.2 µM; TGI (A498 renal): 33.7 µM; TGI (HCC-2998 colon): 28.8 µM; TGI (T-47D breast): 47.6 µM; TGI (NCI-H226 lung): 32.5 µM; TGI (MDA-MB-231 breast): 30.5 µM; TGI (SK-MEL-2 melanoma): 33.2 µM; TGI (EKVX NSCLC): 34.6 µM; TGI (SNB-19 CNS): 35.8 µM; TGI (RPMI-8226 leukemia): 53.1 µM; TGI (U251 CNS): 67 µM; TGI (HT29 colon): 29.8 µM; TGI (CCRF-CEM leukemia): 69 µM; TGI (K-562 leukemia): 38.3 µM; TGI (OVCAR-3 ovarian): 35.5 µM; TGI (786-0 renal): 31.3 µM; TGI (ACHN renal): 32.6 µM; TGI (DU-145 prostate): 32.4 µM; TGI (LOX IMVI melanoma): 30.6 µM; TGI (SF-539 CNS): 29.7 µM; TGI (SF-295 CNS): 51.9 µM; TGI (HL-60(TB) leukemia): > 100 µM; TGI (NCI-H23 lung): 32.6 µM; TGI (SF-268 CNS): 38.7 µM; TGI (SNB-75 CNS): 33.5 µM; TGI (HOP-62 NSCLC): 32.4 µM; TGI (RXF 393 renal): 35.4 µM; TGI (PC-3 prostate): 31.9 µM; TGI (OVCAR-8 ovarian): 36.6 µM; TGI (HOP-92 NSCLC): 30.5 µM; TGI (OVCAR-4 ovarian): 30 µM; TGI (TK-10 renal): 30.1 µM; TGI (A549 NSCLC): 27.7 µM; TGI (SW-620 colon): 55.3 µM; TGI (M14 melanoma): 33.1 µM; TGI (MDA-N): 35.2 µM; TGI (UACC-257 melanoma): 29.6 µM; TGI (HCT-116 colon): 33.1 µM; TGI (SK-MEL-28 melanoma): 60.2 µM; TGI (MCF7 breast): 28.9 µM; TGI (SK-OV-3 ovarian): 29.1 µM; TGI (NCI-H460 lung): 32.5 µM; TGI (MALME-3M melanoma): 34.3 µM; TGI (COLO 205 colon): 39 µM; TGI (SR leukemia): 84.1 µM; TGI (UO-31 renal): 30.4 µM; TGI (HS 578T breast): 40.9 µM; TGI (OVCAR-5 ovarian): 32.6 µM; TGI (NCI/ADR-RES ovarian): 37.6 µM; TGI (SK-MEL-5 melanoma): 32.8 µM; TGI (MDA-MB-435): > 100 µM; TGI (IGROV1 ovarian): 33.4 µM; TGI (NCI-H522 lung): 28 µM; TGI (KM12 colon): 29.9 µM
